Data set [1] has as its target T1, ETA receptor (Homo sapiens, UniProt P25101).
T1 sequence (P25101 21-427): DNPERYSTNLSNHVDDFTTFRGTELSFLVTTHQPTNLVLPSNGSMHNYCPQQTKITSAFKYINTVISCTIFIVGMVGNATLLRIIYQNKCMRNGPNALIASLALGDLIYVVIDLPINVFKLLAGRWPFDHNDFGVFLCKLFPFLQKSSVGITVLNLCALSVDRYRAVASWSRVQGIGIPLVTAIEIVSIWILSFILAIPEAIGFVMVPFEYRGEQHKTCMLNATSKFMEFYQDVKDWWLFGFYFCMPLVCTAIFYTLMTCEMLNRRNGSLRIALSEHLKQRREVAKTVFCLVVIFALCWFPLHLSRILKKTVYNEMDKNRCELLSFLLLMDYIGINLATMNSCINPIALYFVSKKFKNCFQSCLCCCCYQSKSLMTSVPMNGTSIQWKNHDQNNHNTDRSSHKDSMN
Conditions: read-out: affinity for the ETA receptor; cited from earlier work.

Data set [2] is described as follows: Ambrisentan in subjects who discontinued bosentan/sitaxsentan due to aminotransferase elevations (AMB-222, AMB-323). It counts as in vivo, human. Conditions: prior ERA discontinued for aminotransferase >3×ULN. The source says:
They were enrolled in studies AMB-222 (n=36) and AMB-323 (n=27). […] The remaining subjects in these studies (a total of 4 subjects) did have an aminotransferase level>3×ULN and are included in Table 1.

The subject of data set [3] is patients with IPF, with or without pulmonary hypertension (WHO Group 3). Nature of the data set: Randomized controlled study in idiopathic pulmonary fibrosis. It counts as in vivo.
For data set [4] the following is noted: all clinical trials combined; cited from earlier work.
Data set [5] deals with patients with PAH (WHO Group 1). In words: ARIES-2 12-week placebo-controlled study. It counts as in vivo, human. Here is the method: Two 12-week, randomized, double-blind, placebo-controlled, multicenter studies were conducted in 393 patients with PAH (WHO Group 1). The two studies were identical in design except for the doses of ambrisentan and the geographic region of the investigational sites. ARIES-1 (Ambrisentan in Pulmonary Arterial Hypertension, Randomized, Double-Blind, Placebo-Controlled, Multicenter, Efficacy Studies) compared once-daily doses of 5 mg and 10 mg ambrisentan to placebo, […] In both studies, ambrisentan or placebo was added to current therapy, which could have included a combination of anticoagulants, diuretics, calcium channel blockers, or digoxin, but not epoprostenol, treprostinil, iloprost, bosentan, or sildenafil. The primary study endpoint was 6-minute walk distance. In addition, clinical worsening, WHO functional class, dyspnea, and SF-36® Health Survey were assessed.
Patients had idiopathic or heritable PAH (64%) or PAH associated with connective tissue diseases (32%), HIV infection (3%), or anorexigen use (1%). There were no patients with PAH associated with congenital heart disease.
Patients had WHO functional class I (2%), II (38%), III (55%), or IV (5%) symptoms at baseline. The mean age of patients was 50 years, 79% of patients were female, and 77% were Caucasian.
Clinical Worsening: Time to clinical worsening of PAH was defined as the first occurrence of death, lung transplantation, hospitalization for PAH, atrial septostomy, study withdrawal due to the addition of other PAH therapeutic agents or study withdrawal due to early escape. Early escape was defined as meeting two or more of the following criteria: a 20% decrease in the 6-minute walk distance; an increase in WHO functional class; worsening right ventricular failure; rapidly progressing cardiogenic, hepatic, or renal failure; or refractory systolic hypotension.

Data set [6] concerns patients with PAH. Nature of the data set: Long-term follow-up of the two pivotal studies and open-label extension. It counts as in vivo, human. The following applies: 2.5, 5 or 10 mg once daily, N=383. The protocol:
Long-term Treatment of PAH: In long-term follow-up of patients who were treated with ambrisentan (2.5 mg, 5 mg, or 10 mg once daily) in the two pivotal studies and their open-label extension (N=383), Kaplan-Meier estimates of survival at 1, 2, and 3 years were 93%, 85%, and 79%, respectively. Of the patients who remained on ambrisentan for up to 3 years, the majority received no other treatment for PAH.

For data set [7], the target named is T2, P-glycoprotein (Pgp) (Homo sapiens, UniProt P08183).
T2 construct: expressed in transfected cells; host or cells: Madin-Darby canine kidney strain II (MDCKII)
In words: Inhibition of Pgp, transfected MDCKII cells. It counts as cell-based. Conditions: human, transfected MDCKII cells. The protocol: Inhibition constants (IC50) were measured for human bile salt export pump (BSEP), sodium taurocholate cotransporting polypeptide (NTCP), multidrug resistance protein 2 (MRP2), P-glycoprotein (Pgp), breast cancer resistance protein (BCRP), organic anion-transporting polypeptide 1B1 (OATP1B1), and OATP1B3 in transfected cell-lines. Known inhibitors were used as positive controls.

Setting [8] is: ARIES-2, 5 mg (N = 64), 12 weeks.
Setting [9] is: ARIES-2, ambrisentan N = 127, 12-week treatment, intention-to-treat.

T2 sequence (P08183 whole entry): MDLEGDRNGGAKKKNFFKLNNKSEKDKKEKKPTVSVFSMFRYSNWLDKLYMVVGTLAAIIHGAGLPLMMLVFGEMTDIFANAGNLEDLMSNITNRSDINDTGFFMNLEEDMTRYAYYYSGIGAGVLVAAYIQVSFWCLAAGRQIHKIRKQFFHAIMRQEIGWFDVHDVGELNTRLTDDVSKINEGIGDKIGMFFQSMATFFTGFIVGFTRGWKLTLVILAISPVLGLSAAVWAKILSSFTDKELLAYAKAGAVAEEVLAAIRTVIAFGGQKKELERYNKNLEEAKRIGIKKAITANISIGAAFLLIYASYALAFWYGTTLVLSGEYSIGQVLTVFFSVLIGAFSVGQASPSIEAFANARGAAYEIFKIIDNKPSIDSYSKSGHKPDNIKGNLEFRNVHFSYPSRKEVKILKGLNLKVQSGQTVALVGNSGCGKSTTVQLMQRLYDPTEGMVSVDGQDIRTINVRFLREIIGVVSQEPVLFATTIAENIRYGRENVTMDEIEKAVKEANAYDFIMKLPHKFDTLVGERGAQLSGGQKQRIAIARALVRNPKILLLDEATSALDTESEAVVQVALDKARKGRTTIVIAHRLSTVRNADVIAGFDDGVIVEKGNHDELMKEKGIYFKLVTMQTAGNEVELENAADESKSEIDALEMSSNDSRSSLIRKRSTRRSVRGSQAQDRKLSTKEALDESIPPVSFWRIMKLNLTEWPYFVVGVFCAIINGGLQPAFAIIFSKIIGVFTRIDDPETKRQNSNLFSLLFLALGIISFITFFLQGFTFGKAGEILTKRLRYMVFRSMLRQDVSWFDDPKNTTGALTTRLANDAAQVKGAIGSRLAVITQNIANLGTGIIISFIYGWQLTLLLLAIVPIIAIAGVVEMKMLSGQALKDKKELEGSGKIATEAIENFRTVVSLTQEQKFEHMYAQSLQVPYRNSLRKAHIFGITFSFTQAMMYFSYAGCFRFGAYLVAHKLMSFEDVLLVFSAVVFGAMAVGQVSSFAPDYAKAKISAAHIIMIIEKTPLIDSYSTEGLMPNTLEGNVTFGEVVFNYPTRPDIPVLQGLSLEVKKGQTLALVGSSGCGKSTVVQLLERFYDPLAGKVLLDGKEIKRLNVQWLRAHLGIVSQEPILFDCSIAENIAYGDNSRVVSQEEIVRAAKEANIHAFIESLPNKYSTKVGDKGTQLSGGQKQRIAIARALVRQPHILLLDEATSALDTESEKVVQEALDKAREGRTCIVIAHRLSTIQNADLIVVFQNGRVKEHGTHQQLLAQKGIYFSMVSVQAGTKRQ

Take `COC(c1ccccc1)(c1ccccc1)[C@H](Oc1nc(C)cc(C)n1)C(=O)O` [Ambrisentan, (25)-2-[(4,6-dimethylpyrimidin-2-yl)oxy]-3-methoxy-3,3-diphenylpropanoic acid]: the Ki in data set [1] is about 0.012 nM. Also, the “subjects who did not experience aminotransferase elevations while receiving ambrisentan” value in data set [2] (AMB-222 (n=36)) came out at 97%; in data set [2] (AMB-323 (n=27)), 89%. Also, the patients who died in data set [3] (ambrisentan n=329, placebo 4%) is 8%. Besides, the “patients with a respiratory hospitalization” value in data set [3] (ambrisentan n=329, placebo 6%) was 13%. For the same molecule, the “patients with a decrease in FVC/DLCO” value in data set [3] (ambrisentan n=329, placebo 12%) is recorded as 17%. In addition, the “risk of disease progression or death versus placebo” value in data set [3] (study terminated after 34 weeks) is given as “greater risk of disease progression or death”. For the same molecule, in data set [4], the “1-year risk of significant aminotransferase abnormalities” value is under 3%. For the same molecule, the “Placebo-adjusted mean change from baseline in 6-minute walk distance” value in data set [5] (setting [8]) stood at 32 meters. In addition, the “Placebo-adjusted median change from baseline in 6-minute walk distance” value in data set [5] (setting [8]) turned out to be 30 meters. The “Mean change from baseline in 6-minute walk distance” value in data set [5] (ARIES-2, 5 mg (N = 64), 12 weeks, mean ± SD) turned out to be 22 ± 83 meters. In data set [5] (setting [9]), the “Clinical worsening, %” value is recorded as 6%. Besides, the “Clinical worsening, no.” value in data set [5] (setting [9]) was 8. For the same molecule, in data set [5] (ARIES-2, versus placebo), the “Time to clinical worsening, hazard ratio” value came out at 0.30. For the same molecule, the “Kaplan-Meier estimate of survival” value in data set [6] (at 1 year) was 93%; in data set [6] (at 2 years), 85%; in data set [6] (at 3 years), 79%.

Take `COc1ccccc1Oc1c(NS(=O)(=O)c2ccc(C(C)(C)C)cc2)nc(-c2ncccn2)nc1OCCO` [Bosentan]: the IC50 in data set [7] is over 100000 nM.

By IC50 is commonly meant the point on the concentration scale where inhibition reaches its midpoint. A lower IC50 goes with inhibition by little substance.

The values are drawn from patent publication US20140275094A1, “METHOD FOR TREATING PULMONARY ARTERIAL HYPERTENSION IN A PATIENT NOT HAVING IDIOPATHIC PULMONARY FIBROSIS” (GILEAD SCIENCES, INC., priority 2012, published 2014).
